In patent publication US11357786B2, “Synthetic disugar hydrocarbons as natural analogs to control microbial behaviors” (Syracuse University, priority 2014, dated 2022):
Read-outs that look alike come from different tables or passages of the source.

Columns and labels:
[1] = system: las quorum sensing system; experiment: las quorum sensing gene reporter assay (plasI-LVAgfp); format: cell-based, Pseudomonas aeruginosa; settings: natural autoinducers present
Text: The ability of the maltoside derivatives to antagonize the two quorum sensing circuits las and/or rhl of P. aeruginosa was investigated by using two reporter strains (PAO1/plasI-LVAgfp, PAO1/prhlI-LVAgfp). These reporter strains produce natural AHL signals, and binding of such signal molecules to the Lux-type receptor proteins ([…]) activates the expression of green fluorescent protein (GFP) encoded by the plasmid.
One of the recent approach for a nonmicrobicidal control of biofilm aims to develop agents that disrupt bacterial cell-to-cell communication by acting as mimics to the natural molecules (autoinducer) that bind […], which are encoded by las and rhl gene. The binding of these mimics with lasR and rhlR proteins either activates or represses the expression of lasI or rhlI.^6 In gene reporter assay, the expression of lasI and rhlI proteins is quantified by measuring expression of green fluorescent protein (GFP) fused to lasI and rhlI genes.^5 Two reporter strains of Pseudomonas aeruginosa (PAO1/plasI_LVAgfp and PAO1/prhlI_LVAgfp) express green fluorescence protein on activation of las or rhl quorum sensing system. The activation or repression of las or rhl quorum sensing system in PA was tested by various DSHs.
Strains PAO1/plasI-LVAgfp and PAO1/prhlI-LVAgfp were grown overnight in LB-media that was supplemented with 300 μg/mL carbenicillin and after 16 hours, the bacteria were sub cultured in LB media (supplemented with 300 μg/mL carbenicillin) to OD600 as 0.01. The OD600 was allowed to reach 0.1 and then 200 μL of culture was aliquoted into the wells of 96-well microtiter plate. DSHs were then added to assigned wells at two different concentrations (85 μM and 160 μM). No agent was added to the well for positive control. The plates then incubated at 37° C. for 24 h in a rotary shaking incubator (250 rpm). The culture from each well was then transferred to corresponding wells of a black walled flat-bottom, 96-well plate (μClear, Greiner-One 655096). The fluorescence and OD absorbance in each well was measured by Synergy 2 multi-mode microplate reader with aGen5 data analysis software. […] Fluorescence was measured at an excitation wavelength of 500 nm and an emission wavelength of 540 nm.
For an antagonist assay, overnight culture of P. aeruginosa PAO1/plasI-LVAgfp (las system) or PAO1/prhlI-LVAgfp (rhl system) in LB broth (supplemented with 300 μg/mL carbenicillin) was grown from a single colony on a LB agar plate supplemented with 300 μg/mL carbenicillin. […] The fluorescence and OD absorbance in each well was measured by Synergy 2 multi-mode microplate reader with Gen5 data analysis software. […] Fluorescence was measured at an excitation wavelength of 500 nm and an emission wavelength of 540 nm. […]

[2] = system: 1-day old PAO1 biofilm; experiment: Crystal violet assay for dispersion of 1-day old biofilm, DSHs (Examples 2 and 4); format: cell-based, Pseudomonas aeruginosa
Description: The effect that DSHs have on the adhesion of PAO1-EGFP on polystyrene surface (microtiter plate) was also examined. PAO1-EGFP is a P. aeruginosa strain that constitutively expresses green fluorescent protein. In the adhesion assays, PAO1-EGFP was grown in microtiter plate for 24-hours in LB-media with (160 μM) or without DSHs. After 24-hours, the fluorescent signal obtained from surface adhered PAO1-EGFP was measured. Percent reduction in fluorescence was calculated by comparing fluorescent signal from PAO1-EGFP grown in LB-media with the signal from wells that had DSHs (FIG. 29A). To study the effect of DSHs on biofilm formation, Pseudomonas aeruginosa (PAO1) was grown in LB-media with (160 μM) or without DSHs at 37° C. under static conditions within wells of microtiter plates. After 24 hours, the surface attached biofilms adhering to the bottom of the wells were stained with crystal-violet dye and the biofilm was quantified by measuring absorbance at 600 nm (OD600). The percent inhibition was calculated by comparing biofilm content of wells with no added agents (control) with the biofilm content from wells that had 160 μM of DSHs (FIG. 29A). Similar to inhibition, the surface attached biofilm after dispersion with DSHs was quantified with crystal-violet staining and absorbance measurement at 600 nm, except that for dispersion, biofilm was first grown for 1 day in just LB-media without any DSHs after which DSHs were added and plates were incubated for additional 24 hours followed by quantification (FIG. 29B).
Crystal violet based assay for quantifying dispersion of 1-day old PAO1 biofilms were Plate for set up similar to inhibition assay with a slight modification. Wells of the micro-titer plate was inoculated with (200 μL) bacterial subculture (PAO1 subculture OD600 ˜0.1). The plates were incubated at 37° C. for 24 hours to allow biofilm formation. After 24 hours, bacterial culture was gently pipetted out and appropriate volume of DSH were added followed by addition of fresh LB medium (200 μL). The microtiter plate was incubated for an additional 24 hours at 37° C., following which, similar to work up of inhibition assay, culture was removed, wells were washed and CV-dye was introduced, followed by washing and destaining with 30% AcOH solution in water and quantification at 600 nm. Here again, only the surface attached biofilm dispersed was reported by comparing wells with DSHs with wells with no agent.
Dose dependence assays for biofilm inhibition and dispersion. […] Both for biofilm inhibition and dispersion, predetermined volumes of DSH stocks were added to the assigned wells to span a concentration range between 0.5 μM-170 μM. Percent biofilm inhibition of dispersion was calculated by comparing to wells with no agent. The percent biofilm inhibition or dispersion was plotted versus concentration of DSHs. The linear values were logarithmically curve fitted using equation […]. The half maximal inhibitory concentration for both biofilm inhibition and dispersion (IC50 and DC50) were thus obtained.

[3] = Example 2, FIG. 20, read-out: Biofilm dispersion DC50
[4] = Example 4, FIG. 31, read-out: Half-maximal dispersion concentration (DC50)

| SMILES | Change of GFP fluorescence, las reporter strain PAO1/plasI-LVAgfp (antagonist assay) [1] | Change of GFP fluorescence, las reporter strain PAO1/plasI-LVAgfp (antagonist assay) ([1]; listed as 12: SFβC) | DC50 [2, 3] [µM] | DC50 [2, 4] [µM] | Change of GFP fluorescence, las reporter strain PAO1/plasI-LVAgfp (antagonist assay) ([1]; listed as 13: SFαC) |
| --- | --- | --- | --- | --- | --- |
| CC(C)CCCC(C)CCCC(C)CCO[C@@H]1O[C@H](CO)[C@@H](O[C@@H]2O[C@H](CO)[C@@H](O)[C@H](O)[C@H]2O)[C@H](O)[C@H]1O (stereo partly drawn) [SFβC (12), saturated famesyl-β-cellobioside] | neither SFβC (12) nor SFαC (13) caused a significant change in the fluorescence | no significant change in the fluorescence | ~36.4 | ~44 | – |
| CC(C)CCCC(C)CCCC(C)CCO[C@@H]1O[C@H](CO)[C@@H](O[C@H]2O[C@H](CO)[C@@H](O)[C@H](O)[C@H]2O)[C@H](O)[C@H]1O (stereo partly drawn) [SFβM (14), saturated farnesyl-β-maltoside] | – | – | – | ~126 | – |
| CC(C)CCCC(C)CCCC(C)CCO[C@H]1O[C@H](CO)[C@@H](O[C@@H]2O[C@H](CO)[C@@H](O)[C@H](O)[C@H]2O)[C@H](O)[C@H]1O (stereo partly drawn) [SFαC (13), saturated farnesyl-α-cellobioside] | neither SFβC (12) nor SFαC (13) caused a significant change in the fluorescence | – | ~78.4 | ~89 | no significant change in the fluorescence |
